Data published in patent US6846933B1, “Antimycobacterial compounds and method for making the same” (priority 2000, dated 2005).
≈ marks a conversion by molar mass, not a printed value. Like-named read-outs stand apart in the source and are kept apart here.

Experiments:
[1] = system: Mycobacterium tuberculosis H37Rv (ATCC 27294); test: TAACF MIC / primary screen vs M. tuberculosis H37Rv (MABA or BACTEC 460); format: cell-based; settings: for MIC: Mycobacterium tuberculosis
[2] = system: M. tuberculosis Erdman (ATCC 35801) in monolayers of mouse bone marrow macrophages; test: Killing of M. tuberculosis Erdman in mouse bone marrow macrophages; format: cell-based; settings: Mycobacterium tuberculosis, Bone marrow macrophage, 168 h
VERO cells = test: Cytotoxicity in VERO cells (MTT, 72 hours); format: cell-based; settings: Chlorocebus sabaeus
M. avium (ATCC 25291) = test: TAACF M. avium assay; format: cell-based, Mycobacterium avium; set-up: % Inhibition: concentration or dose not given beside the values; settings: for % Inhibition: M. avium assay; for MIC: Mycobacterium avium
M. avium 101 = test: Broth dilution MIC vs M. avium 101; format: cell-based; settings: Mycobacterium avium, modified 7H10 broth, lowest concentration with no turbidity
M. kansasii swank = test: Broth dilution MIC vs M. kansasii swank; format: cell-based; settings: Mycobacterium kansasii; modified 7H10 broth, lowest concentration with no turbidity
M. tuberculosis Erdman = test: MIC vs M. tuberculosis Erdman; format: cell-based; settings: Mycobacterium tuberculosis, read-out: MIC Erdman (ug/ml)
M. tuberculosis EMB-R = test: microbe, parasite or virus in culture; format: cell-based; settings: Mycobacterium tuberculosis, read-out: MIC EMB-R (ug/ml)
[3] = M. tuberculosis assay, Tables 4 and 5, read-out: MIC
[4] = M. tuberculosis assay, Alamar, Table 7
[5] = ATCC25291, M. avium assay, Bactec, Tables 10-12, read-out: MIC

Structure (SMILES)	MIC [1, 3] [µg/mL]	EC90 [2] [µg/mL]	EC99 [2] [µg/mL]	other results
CCCCOc1ccc(/C=N/NC(=O)c2ccncc2)cc1 [Sample ID 102090]	0.1 (≈ 0.336 µM)	0.18 (≈ 0.605 µM)	> 1.6	
CCOC(=O)C/C(C)=N/NC(=O)c1ccncc1 [Sample ID 101743]	0.2 (≈ 0.802 µM)	0.01 (≈ 0.0401 µM)	> 3.2	
O=C(N/N=C/c1c(F)cccc1F)c1ccncc1 [Sample ID 122489]				% Inhibition [1, 4]: 99%; MIC ([1]; M. tuberculosis assay, Alamar, Tables 7 and 9): < 0.2 µg/mL; IC50 (VERO cells): > 125 µg/mL; % Inhibition (M. avium (ATCC 25291); Bactec, Tables 10-12): 45%; MIC (M. avium (ATCC 25291); [5]): > 12.5 µg/mL
O=C(NN=C1CCCCC1)c1ccncc1 [Sample ID 102674]	0.03 (≈ 0.138 µM)	0.08 (≈ 0.368 µM)	> 0.4	
O=C(N/N=C/c1cccc(/C=N/NC(=O)c2ccncc2)c1)c1ccncc1 [Sample ID 102043]	0.05 (≈ 0.134 µM)	0.04 (≈ 0.107 µM)	> 0.8	
CCCCC(=O)NNC(=O)c1ccncc1				melting point: 162 °C
CC(=O)N1N=C(c2ccncc2)OC1c1c(Cl)cccc1Cl (centres unmarked) [Sample ID 117899]				% Inhibition (M. avium (ATCC 25291); Alamar, Table 11): 12%; MIC (M. avium (ATCC 25291); ATCC25291, M. avium assay, Alamar, Table 11, read-out: MIC): > 12.5 µg/mL
O=C(NNC(=S)Nc1ccccc1)c1ccncc1 [Sample ID 122697]				% Inhibition ([1]; M. tuberculosis assay, Table 13, primary screen): 79%; MIC ([1]; M. tuberculosis assay, Table 13, primary screen, read-out: MIC): > 12.5 µg/mL
CC[C@H]1OC(=O)[C@H](C)[C@@H](O[C@H]2C[C@@](C)(OC)[C@@H](O)[C@H](C)O2)[C@H](C)[C@@H](O[C@@H]2O[C@H](C)C[C@H](N(C)C)[C@H]2O)[C@](C)(OC)C[C@@H](C)C(=O)[C@H](C)[C@@H](O)[C@]1(C)O [Clarithromycin, reference compound]				MIC (M. avium (ATCC 25291); ATCC25291, reference control, read-out: MIC Clarithromycin vs. M. avium (control in Comment column)): 2 µg/mL (≈ 2.67 µM); MIC (M. avium 101): 2 µg/mL (≈ 2.67 µM)
CCCCCCCCCCCC/C=N/NC(=O)c1ccncc1 [Sample ID 102094]	0.2 (≈ 0.63 µM)	0.08 (≈ 0.252 µM)	> 3.2	
O=C(N/N=C/c1ccc(F)cc1)c1ccncc1 [Sample ID 103167]	0.1 (≈ 0.411 µM)	0.02 (≈ 0.0822 µM)	0.07	
COc1ccccc1/C=N/NC(=O)c1ccncc1 [Sample ID 102871]	0.2 (≈ 0.783 µM)	0.06 (≈ 0.235 µM)	0.23	
NNC(=O)c1ccncc1 [INH, isonicotinic acid hydrazide, reference compound]		0.21 (≈ 1.53 µM)	> 0.4	IC50 (VERO cells): > 1000 µg/mL; MIC (M. kansasii swank): 1 µg/mL (≈ 7.29 µM)
O=C(N/N=C/c1ccc(Cl)c(Cl)c1)c1ccncc1 [Sample ID 122490]				% Inhibition [1, 4]: 99%; MIC ([1]; M. tuberculosis assay, Alamar, Tables 7 and 9, read-out: MIC): < 0.2 µg/mL; IC50 (VERO cells): > 10 µg/mL; % Inhibition (M. avium (ATCC 25291); Bactec, Tables 10-12): 20%; MIC (M. avium (ATCC 25291); [5]): > 12.5 µg/mL
CC(/C=N/NC(=O)c1ccncc1)=C\c1ccccc1 [Sample ID 103062]	0.2 (≈ 0.754 µM)	0.03 (≈ 0.113 µM)	0.15	
CC(C)=NNC(=O)c1ccncc1 [Sample ID 102752]	0.1 (≈ 0.564 µM)	0.03 (≈ 0.169 µM)	0.14	
O=C(NNC(=S)Nc1ccc(Cl)cc1)c1ccncc1 [Sample ID 126719]				% Inhibition (M. avium (ATCC 25291); Bactec, Tables 10-12): 84%; MIC (M. avium (ATCC 25291); ATCC25291, M. avium assay, Bactec, Tables 10-12): > 12.5 µg/mL
O=C(NNC(=S)Nc1ccc(Br)cc1)c1ccncc1 [Sample ID 125304]				% Inhibition (M. avium (ATCC 25291); Bactec, Tables 10-12): 15%; MIC (M. avium (ATCC 25291); [5]): > 12.5 µg/mL
O=C(NN=C1CCCC1)c1ccncc1 [Sample ID 111298]	0.025 (≈ 0.123 µM)	0.03 (≈ 0.148 µM)	0.16	MIC ([1]; M. tuberculosis assay, Bactec, Tables 6, 7, 8): 0.02 µg/mL (≈ 0.0984 µM); MIC ([1]; read-out: MIC H37Rv (ug/ml), Bactec, strain panel): 0.05 µg/mL (≈ 0.246 µM); MIC (M. tuberculosis Erdman): 0.05 µg/mL (≈ 0.246 µM); MIC (M. tuberculosis EMB-R): 0.05 µg/mL (≈ 0.246 µM)
